Data as given in US5248690A, “Method for treatment of neurodegenerative diseases” (R. J. Reynolds Tobacco Company, priority 1992, dated 1993).

Molecular target: high affinity nicotinic receptors
Test: Inhibition of L-[3H]nicotine binding to mouse brain membrane preparations
Design: species or system Mice (DBA strain)
Conditions: 10 nM L-[3H]nicotine, 2 hr at 4° C., mouse brain membranes, Ki calculated from IC50 by method of Cheng et al.
Description: Mice (DBA strain) were maintained on a 12 hour light/dark cycle and were allowed free access to water and food supplied by Wayne Lab Blox, Madison, Wis. Animals used in the present studies were 60 to 90 days of age and weighed 20 to 25 g. Brain membrane preparations were obtained from pooled brain tissue of both males and females.
Mice were killed by cervical dislocation. Brains were removed and placed on an ice-cold platform. […] Protein was determined by the method of Lowry, et al., J. Biol. Chem., Vol. 193, pp. 265-275 (1951), using bovine serum albumin as the standard.
The binding of L-[^3 H]nicotine was measured using a modification of the method of Romano, et al., Science, Vol. 210, pp. 647-650 (1980) as described previously by Marks, et al., Mol. pharmacol., Vol. 30, pp. 427-436 (1986). The binding of L-[^3 H]nicotine was measured using a 2 hr. incubation at 4° C. […] Nonspecific binding was determined by inclusion of 10 μM nonradioactive nicotine in the incubations. The inhibition of L-[^3 H]nicotine binding by test compounds was determined by including one of eight different concentrations of the test compound in the incubation. […] Inhibition constants (Ki values) were calculated from the IC50 values using the method of Cheng, et al., Biochem. Pharmacol., Vol. 22, pp. 3099-3108 (1973). […]

**Q.** With `CN1CCCC1c1ccccc1` (racemic) [1-methyl-2-phenylpyrrolidine] as the compound, how does the Ki read?
**A.** 3.5 µM
